# Assays:
# Assay in all cases: Test C greenhouse herbicide test, pre- and postemergence
# Assay type in all cases: in vivo
# [1] = test system: barnyardgrass (Echinochloa crus-galli)
# Method in brief: (§1)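 Visual 0–100 injury score (100 = complete control) taken against untreated controls after 13–15 d in greenhouse. Test chemicals, formulated in solvent plus surfactant, applied preemergence to seeds in loam–sand soil or postemergence to 1- to 4-leaf plants (2–18 cm).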
# [2] = test system: blackgrass (Alopecurus myosuroides)
# Method in brief: as §1
# [3] = test system: corn (Zea mays)
# Method in brief: as §1
# [4] = test system: crabgrass, large (large crabgrass, Digitaria sanguinalis)
# Method in brief: as §1
# [5] = test system: foxtail, giant (giant foxtail, Setaria faberii)
# Method in brief: as §1
# [6] = test system: galium (catchweed bedstraw, Galium aparine)
# Method in brief: as §1
# [7] = test system: lambsquarters (Chenopodium album)
# Method in brief: as §1
# [8] = test system: morningglory (Ipomoea coccinea)
# Method in brief: as §1
# [9] = test system: oilseed rape (Brassica napus)
# Method in brief: as §1
# [10] = test system: pigweed (Amaranthus retroflexus)
# Method in brief: as §1
# [11] = test system: ragweed (common ragweed, Ambrosia elatior)
# Method in brief: as §1
# [12] = test system: ryegrass, Italian (Italian ryegrass, Lolium multiflorum)
# Method in brief: as §1
# [13] = test system: velvetleaf (Abutilon theophrasti)
# Method in brief: as §1
# [14] = test system: waterhemp (common waterhemp, Amaranthus rudis)
# Method in brief: as §1
# [15] = test system: wheat (winter wheat, Triticum aestivum)
# Method in brief: as §1
# [16] = Postemergence, 31 g ai/ha, 0 to 100 scale (0 no effect, 100 complete control)
# [17] = Postemergence, 125 g ai/ha, scale 0 to 100, 0 is no effect, 100 is complete control
# [18] = Postemergence, 250 g ai/ha, scale 0 to 100, 0 no effect, 100 complete control, 13 to 15 d
# [19] = Preemergence, 31 g ai/ha, scale 0 to 100, 0 is no effect, 100 is complete control
# [20] = Preemergence, 62 g ai/ha, scale 0 to 100, 0 is no effect, 100 is complete control
# [21] = Preemergence, 125 g ai/ha, scale 0 to 100, 0 is no effect, 100 is complete control
# [22] = Preemergence, 250 g ai/ha, scale 0 to 100, 0 no effect, 100 complete control
# [23] = postemergence, 62 g ai/ha, scale 0 to 100, 0 no effect, 100 complete control
structure (smiles),measurement,setting,value
Cc1ccc2ccccc2c1-c1c(OC(=O)OC(C)C)c(C)nn(C)c1=O [Compound 72],Barnyardgrass plant response rating,[1]; [16],35
same,"Plant response rating, Barnyardgrass",[1]; [17],50
same,"Plant response rating, Barnyardgrass",[1]; [18],65
same,"Plant response rating, Barnyardgrass",[1]; [19],10
same,"Plant response rating, Barnyardgrass",[1]; [20],20
same,"Plant response rating, Barnyardgrass",[1]; [21],55
same,Barnyardgrass plant response rating,[1]; [22],80
same,Barnyardgrass plant response rating,[1]; [23],40
same,Blackgrass plant response rating,[2]; [16],60
same,"Plant response rating, Blackgrass",[2]; [17],80
same,"Plant response rating, Blackgrass",[2]; [18],90
same,"Plant response rating, Blackgrass",[2]; [19],40
same,"Plant response rating, Blackgrass",[2]; [20],50
same,"Plant response rating, Blackgrass",[2]; [21],70
same,Blackgrass plant response rating,[2]; [22],90
same,Blackgrass plant response rating,[2]; [23],70
same,Corn plant response rating,[3]; [16],5
same,"Plant response rating, Corn",[3]; [17],20
same,"Plant response rating, Corn",[3]; [18],25
same,"Plant response rating, Corn",[3]; [19],0
same,"Plant response rating, Corn",[3]; [20],0
same,"Plant response rating, Corn",[3]; [21],0
same,Corn plant response rating,[3]; [22],20
same,Corn plant response rating,[3]; [23],10
same,"Crabgrass, Large plant response rating",[4]; [16],10
same,"Plant response rating, Crabgrass, Large",[4]; [17],35
same,"Plant response rating, Crabgrass, Large",[4]; [18],60
same,"Plant response rating, Crabgrass, Large",[4]; [19],60
same,"Plant response rating, Crabgrass, Large",[4]; [20],80
same,"Plant response rating, Crabgrass, Large",[4]; [21],65
same,"Crabgrass, Large plant response rating",[4]; [22],85
same,"Crabgrass, Large plant response rating",[4]; [23],25
same,"Foxtail, Giant plant response rating",[5]; [16],50
same,"Plant response rating, Foxtail, Giant",[5]; [17],75
same,"Plant response rating, Foxtail, Giant",[5]; [18],85
same,"Plant response rating, Foxtail, Giant",[5]; [19],60
same,"Plant response rating, Foxtail, Giant",[5]; [20],70
same,"Plant response rating, Foxtail, Giant",[5]; [21],85
same,"Foxtail, Giant plant response rating",[5]; [22],85
same,"Foxtail, Giant plant response rating",[5]; [23],70
same,Galium plant response rating,[6]; [16],80
same,"Plant response rating, Galium",[6]; [17],95
same,"Plant response rating, Galium",[6]; [18],95
same,"Plant response rating, Galium",[6]; [19],90
same,"Plant response rating, Galium",[6]; [20],90
same,"Plant response rating, Galium",[6]; [21],95
same,Galium plant response rating,[6]; [22],95
same,Galium plant response rating,[6]; [23],95
same,Lambsquarters plant response rating,[7]; [16],85
same,"Plant response rating, Lambsquarters",[7]; [17],90
same,"Plant response rating, Lambsquarters",[7]; [18],95
same,"Plant response rating, Lambsquarters",[7]; [19],60
same,"Plant response rating, Lambsquarters",[7]; [20],65
same,"Plant response rating, Lambsquarters",[7]; [21],85
same,Lambsquarters plant response rating,[7]; [22],90
same,Lambsquarters plant response rating,[7]; [23],85
same,Morningglory plant response rating,[8]; [16],80
same,"Plant response rating, Morningglory",[8]; [17],95
same,"Plant response rating, Morningglory",[8]; [18],100
same,"Plant response rating, Morningglory",[8]; [19],75
same,"Plant response rating, Morningglory",[8]; [20],85
same,"Plant response rating, Morningglory",[8]; [21],90
same,Morningglory plant response rating,[8]; [22],90
same,Morningglory plant response rating,[8]; [23],90
same,Oilseed Rape plant response rating,[9]; [16],40
same,"Plant response rating, Oilseed Rape",[9]; [17],20
same,"Plant response rating, Oilseed Rape",[9]; [18],85
same,"Plant response rating, Oilseed Rape",[9]; [19],30
same,"Plant response rating, Oilseed Rape",[9]; [20],35
same,"Plant response rating, Oilseed Rape",[9]; [21],80
same,Oilseed Rape plant response rating,[9]; [22],80
same,Oilseed Rape plant response rating,[9]; [23],35
same,Pigweed plant response rating,[10]; [16],85
same,"Plant response rating, Pigweed",[10]; [17],95
same,"Plant response rating, Pigweed",[10]; [18],98
same,"Plant response rating, Pigweed",[10]; [19],90
same,"Plant response rating, Pigweed",[10]; [20],98
same,"Plant response rating, Pigweed",[10]; [21],98
same,Pigweed plant response rating,[10]; [22],100
same,Pigweed plant response rating,[10]; [23],90
same,Ragweed plant response rating,[11]; [16],80
same,"Plant response rating, Ragweed",[11]; [17],95
same,"Plant response rating, Ragweed",[11]; [18],90
same,"Plant response rating, Ragweed",[11]; [19],85
same,"Plant response rating, Ragweed",[11]; [20],90
same,"Plant response rating, Ragweed",[11]; [21],100
same,Ragweed plant response rating,[11]; [22],95
same,Ragweed plant response rating,[11]; [23],90
same,"Ryegrass, Italian plant response rating",[12]; [16],85
same,"Plant response rating, Ryegrass, Italian",[12]; [17],90
same,"Plant response rating, Ryegrass, Italian",[12]; [18],90
same,"Plant response rating, Ryegrass, Italian",[12]; [19],90
same,"Plant response rating, Ryegrass, Italian",[12]; [20],90
same,"Plant response rating, Ryegrass, Italian",[12]; [21],90
same,"Ryegrass, Italian plant response rating",[12]; [22],90
same,"Ryegrass, Italian plant response rating",[12]; [23],90
same,Velvetleaf plant response rating,[13]; [16],45
same,"Plant response rating, Velvetleaf",[13]; [17],85
same,"Plant response rating, Velvetleaf",[13]; [18],95
same,"Plant response rating, Velvetleaf",[13]; [19],30
same,"Plant response rating, Velvetleaf",[13]; [20],45
same,"Plant response rating, Velvetleaf",[13]; [21],80
same,Velvetleaf plant response rating,[13]; [22],85
same,Velvetleaf plant response rating,[13]; [23],85
same,Waterhemp plant response rating,[14]; [16],70
same,"Plant response rating, Waterhemp",[14]; [17],85
same,"Plant response rating, Waterhemp",[14]; [18],85
same,"Plant response rating, Waterhemp",[14]; [19],75
same,"Plant response rating, Waterhemp",[14]; [20],90
same,"Plant response rating, Waterhemp",[14]; [21],90
same,Waterhemp plant response rating,[14]; [22],90
same,Waterhemp plant response rating,[14]; [23],65
same,Wheat plant response rating,[15]; [16],30
same,"Plant response rating, Wheat",[15]; [17],5
same,"Plant response rating, Wheat",[15]; [18],35
same,"Plant response rating, Wheat",[15]; [19],0
same,"Plant response rating, Wheat",[15]; [20],0
same,"Plant response rating, Wheat",[15]; [21],30
same,Wheat plant response rating,[15]; [22],40
same,Wheat plant response rating,[15]; [23],30
